Data on ten compounds can be found in ChEMBL document CHEMBL1201862, “PubChem BioAssay data set” (2004).

Among the test systems are UACC-257; IGROV-1; LOX IMVI; A549; COLO 205; U-251; NCI-H460; 786-0; SK-MEL-2; NCI-H226; T47D; CCRF-CEM; KM-20L2; EKVX; HCT-15; OVCAR-4; OVCAR-3; ACHN; HOP-92; PC-3.
Assay in all cases: NCI tumour cell line growth inhibition, 48 h

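Five concentrations, 48 hours, 96-well plates. GI50 is the concentration that inhibits growth by half.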 Calls of active or inactive are those of the source. Rule as the data show it: active = GI50 up to about 1.1 µM and inactive = higher.

Turning to `O=C(NC1=C(Cl)C(=O)c2ccccc2C1=O)C(=O)C(C(=O)c1ccc2ccccc2c1)C1OC(=O)c2ccccc21` (stereo not given), the GI50 in the assay with UACC-257 was 2.19 µM (inactive); in the assay with IGROV-1, 7.73 µM (inactive); with LOX IMVI it was 1.08 µM (active); with A549, 4.72 µM (inactive); in the assay with COLO 205, 7.4 µM (inactive); with U-251, 4.38 µM (inactive). Moreover, the GI50 in the assay on NCI-H460 is 2.96 µM (inactive); with 786-0 it was 5.92 µM (inactive); with SK-MEL-2, 4.94 µM (inactive); with NCI-H226, 0.986 µM (active); in the assay on T47D, 5.35 µM (inactive); with CCRF-CEM it was 2.87 µM (inactive). Moreover, the GI50 in the assay with KM-20L2 is 4.52 µM (inactive); with EKVX, 12 µM (inactive); in the assay with HCT-15, 3.77 µM; in the assay with OVCAR-4 it was 6.97 µM (inactive); with OVCAR-3 it was 2.7 µM (inactive); with ACHN, 7.29 µM (inactive).

For the compound `COc1cccc2nc3cc(C)c(C)cc3nc12`, the GI50 is > 100 µM (inactive) in the assay on UACC-257; > 100 µM (inactive) with IGROV-1; 96.8 µM (inactive) in the assay on LOX IMVI; > 100 µM (inactive) in the assay on A549; > 100 µM (inactive) with COLO 205; > 100 µM (inactive) in the assay on U-251. For the same compound, the GI50 with NCI-H460, in the assay on 786-0, in the assay on SK-MEL-2, with NCI-H226, in the assay on CCRF-CEM and in the assay with HOP-92 was > 100 µM (inactive) throughout. In addition, the GI50 was > 100 µM (inactive) in the assay on KM-20L2; > 100 µM (inactive) in the assay with EKVX; above 100 µM in the assay with HCT-15; > 100 µM (inactive) with OVCAR-4; > 100 µM (inactive) in the assay on OVCAR-3; > 100 µM (inactive) in the assay with ACHN.

Turning to `CNC(=O)OC1/C(C)=C\C(C)C(O)C(OC)CC(C)CC2=C(OC)C(=O)C=C(C2=O)N(C)C(=O)/C(C)=C/C=C\C1OC` (stereo not given), the GI50 is 5.02 µM (inactive) with UACC-257; 10.8 µM (inactive) in the assay with IGROV-1; 4.68 µM (inactive) with LOX IMVI; 14.3 µM (inactive) with A549; 0.424 µM (active) in the assay with COLO 205; 15.2 µM (inactive) in the assay on U-251. Also, the GI50 in the assay on NCI-H460 is 11.1 µM (inactive); in the assay on 786-0, 4.31 µM (inactive); in the assay with SK-MEL-2, 8.85 µM (inactive); with NCI-H226 it was 19.5 µM (inactive); with T47D, 1.57 µM (inactive); in the assay with CCRF-CEM it was 0.938 µM (active). Besides, the GI50 in the assay with HOP-92 was 2.8 µM (inactive); in the assay with KM-20L2, 2.53 µM (inactive); in the assay on EKVX it was 11.9 µM (inactive); with HCT-15, 6.76 µM; in the assay with PC-3, 11.5 µM (inactive); in the assay on OVCAR-4, 9.23 µM (inactive). Besides, the values for the GI50 with OVCAR-3 and with ACHN were 3.8 µM (inactive) and 8.24 µM (inactive), respectively.

On to `CC(=O)OC1C(O)C(C)OC(OC2C(OC(=O)C3CCC4C(C3)OC3(CC(OC(=O)/C=C/c5ccccc5)C(C)CO3)C43CO3)OC(C)C(O)C2OC(C)=O)C1O` (stereo not given), for which the GI50 was 0.0205 µM (active) with UACC-257; 0.0134 µM (active) with IGROV-1; 0.00463 µM (active) in the assay on LOX IMVI; 0.0557 µM (active) in the assay with A549; 0.0078 µM (active) in the assay on COLO 205; 0.00679 µM (active) with U-251. Also, the GI50 was 0.0131 µM (active) in the assay on NCI-H460; 0.0132 µM (active) with 786-0; 0.00561 µM (active) with SK-MEL-2; 0.0142 µM (active) in the assay on NCI-H226; 0.00216 µM (active) in the assay with T47D; 0.00351 µM (active) in the assay with CCRF-CEM. The GI50 in the assay with HOP-92 is 0.00581 µM (active); in the assay on KM-20L2, 0.041 µM (active); in the assay with EKVX, 0.0148 µM (active); with HCT-15, 0.718 µM; in the assay on PC-3 it was 0.00513 µM (active); in the assay with OVCAR-4 it was 0.00752 µM (active). In addition, the GI50 was 0.0115 µM (active) in the assay on OVCAR-3 and 0.0925 µM (active) in the assay with ACHN.

Turning to `Nc1nc2ncn(CC(O)COC(=O)c3ccccc3)c2c(=O)[nH]1` (stereo not given), the GI50 with UACC-257, in the assay on IGROV-1, in the assay on LOX IMVI, with A549, in the assay on COLO 205 and in the assay on U-251 was > 100 µM (inactive) throughout. Moreover, the GI50 in the assay on NCI-H460, in the assay with 786-0, in the assay with SK-MEL-2, with NCI-H226, with CCRF-CEM and in the assay with HOP-92 was > 100 µM (inactive) in each case. In addition, the GI50 is > 100 µM (inactive) in the assay with KM-20L2; > 100 µM (inactive) in the assay with EKVX; above 100 µM in the assay on HCT-15; > 100 µM (inactive) in the assay on OVCAR-4; > 100 µM (inactive) with OVCAR-3; > 100 µM (inactive) in the assay with ACHN.

As to `COC(=O)c1cc2c3ccccc3n(C(C)=O)c2cn1`, the GI50 is > 100 µM (inactive) in the assay with UACC-257; 40.4 µM (inactive) with IGROV-1; 63.4 µM (inactive) in the assay with LOX IMVI; > 100 µM (inactive) with A549; 92.5 µM (inactive) in the assay with COLO 205; > 100 µM (inactive) with U-251. The GI50 was 35.6 µM (inactive) in the assay on NCI-H460; > 100 µM (inactive) with 786-0; > 100 µM (inactive) with SK-MEL-2; > 100 µM (inactive) in the assay on NCI-H226; 38.8 µM (inactive) in the assay with CCRF-CEM; 49 µM (inactive) in the assay on HOP-92. In addition, the GI50 with KM-20L2 is > 100 µM (inactive); in the assay on EKVX, 51.2 µM (inactive); with HCT-15, 68.9 µM; in the assay with OVCAR-4, 60 µM (inactive); in the assay on OVCAR-3, 98.6 µM (inactive); in the assay on ACHN it was 53.8 µM (inactive).

Turning to `N#CC(C(=O)/C(=N/Nc1nc(S)nn1N)C(C#N)c1ccccc1)c1ccccc1` (stereo not given), the GI50 with UACC-257, in the assay with IGROV-1, with LOX IMVI, with A549, in the assay with COLO 205 and with U-251 was > 100 µM (inactive) throughout. The GI50 in the assay on NCI-H460, in the assay on 786-0, in the assay with SK-MEL-2, in the assay on NCI-H226, in the assay on T47D and in the assay on CCRF-CEM was > 100 µM (inactive) in each case. The GI50 in the assay with HOP-92 is > 100 µM (inactive); in the assay on KM-20L2, > 100 µM (inactive); in the assay on EKVX, > 100 µM (inactive); in the assay on HCT-15, above 100 µM; in the assay on PC-3, > 100 µM (inactive); in the assay with OVCAR-4, > 100 µM (inactive). For the same compound, the GI50 in the assay on OVCAR-3 and in the assay with ACHN was > 100 µM (inactive) throughout.

As to `CN(C)C(=O)Nc1c([N+](=O)[O-])cc(C(F)(F)F)cc1[N+](=O)[O-]`, the GI50 in the assay with UACC-257 is 27.8 µM (inactive); in the assay with IGROV-1 it was > 100 µM (inactive); in the assay with LOX IMVI, 28.8 µM (inactive); in the assay on A549, 45 µM (inactive); with COLO 205, 25 µM (inactive); in the assay with U-251, > 100 µM (inactive). Also, the GI50 in the assay on NCI-H460 was 42.9 µM (inactive); in the assay on 786-0, > 100 µM (inactive); in the assay on SK-MEL-2, 58.7 µM (inactive); in the assay on NCI-H226, > 100 µM (inactive); in the assay on CCRF-CEM, 79.1 µM (inactive); in the assay with HOP-92, 53.5 µM (inactive). In addition, the GI50 in the assay on KM-20L2 was 26.5 µM (inactive); in the assay on EKVX it was > 100 µM (inactive); with HCT-15 it was 37.1 µM; in the assay with OVCAR-4 it was 27.7 µM (inactive); in the assay with OVCAR-3 it was 19.5 µM (inactive); in the assay with ACHN, 83.4 µM (inactive).

As to `Cc1cc(N(CCOS(C)(=O)=O)CCOS(C)(=O)=O)ccc1/C=N/c1ccc(-c2nc(Cc3ccccc3)sc2C)cc1`, the GI50 with UACC-257 was 12.1 µM (inactive); in the assay on IGROV-1 it was 10.7 µM (inactive); in the assay on LOX IMVI it was 5.37 µM (inactive); with A549, 1.33 µM (inactive); in the assay on COLO 205, 1.43 µM (inactive); in the assay with U-251, 6.64 µM (inactive). The GI50 is 0.0281 µM (active) in the assay on NCI-H460; 1.28 µM (inactive) with 786-0; 15.3 µM (inactive) with SK-MEL-2; 2.2 µM (inactive) with NCI-H226; 2.03 µM (inactive) with T47D; 0.471 µM (active) with CCRF-CEM. The GI50 with HOP-92 was 8.71 µM (inactive); in the assay with KM-20L2, 7.19 µM (inactive); in the assay with EKVX, 4.27 µM (inactive); in the assay with HCT-15 it was 11.2 µM; in the assay on PC-3, 10.3 µM (inactive); in the assay on OVCAR-4, 15.5 µM (inactive). Also, the GI50 in the assay on OVCAR-3 was 2.87 µM (inactive); in the assay with ACHN, 0.404 µM (active).

On to `COc1ccc2c(c1)c(=O)c1c(NCCCN(C)C)ccc3ncn2c31`, for which the GI50 with UACC-257 was 12.2 µM (inactive); with IGROV-1, 3.5 µM (inactive); in the assay on LOX IMVI, 1.54 µM (inactive); with A549, 1.19 µM (inactive); with COLO 205 it was 2.8 µM (inactive); in the assay with U-251, 1.35 µM (inactive). Also, the GI50 in the assay on NCI-H460 is 1.39 µM (inactive); in the assay on 786-0, 1.68 µM (inactive); in the assay on SK-MEL-2 it was 14.2 µM (inactive); in the assay with NCI-H226 it was 2.9 µM (inactive); in the assay with T47D, 16.3 µM (inactive); in the assay on CCRF-CEM, 1.61 µM (inactive). Further, the GI50 in the assay with HOP-92 was 4.13 µM (inactive); with KM-20L2, 1.12 µM (inactive); in the assay on EKVX, 13.8 µM (inactive); in the assay on HCT-15, 1.44 µM; with PC-3, 2.65 µM (inactive); with OVCAR-4 it was 1.15 µM (inactive). The values for the GI50 with OVCAR-3 and in the assay on ACHN were 10.4 µM (inactive) and 0.659 µM (active), respectively.
